Results from PubChem BioAssay (NCI).
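Five compound concentrations were applied to cells in 96-well plates for 48 hours; endpoints were derived by simple linear interpolation of the resulting dose-response curve. The concentration for full growth arrest is given as TGI.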

Legend:
Test in all cases: DTP human tumour cell line panel, 48 h
A549 NSCLC = tested on: A549 NSCLC
CCRF-CEM leukemia = tested on: CCRF-CEM leukemia
COLO 205 colon = tested on: COLO 205 colon
DMS 114 small cell lung = tested on: DMS 114 small cell lung
EKVX NSCLC = tested on: EKVX NSCLC
HCT-116 colon = tested on: HCT-116 colon
HL-60(TB) leukemia = tested on: HL-60(TB) leukemia
HOP-62 NSCLC = tested on: HOP-62 NSCLC
HOP-92 NSCLC = tested on: HOP-92 NSCLC
HT29 colon = tested on: HT29 colon
IGROV1 ovarian = tested on: IGROV1 ovarian
K-562 leukemia = tested on: K-562 leukemia
KM12 colon = tested on: KM12 colon
KM20L2 colon = tested on: KM20L2 colon
LXFL 529 NSCLC = tested on: LXFL 529 NSCLC
M14 melanoma = tested on: M14 melanoma
M19-MEL melanoma = tested on: M19-MEL melanoma
MALME-3M melanoma = tested on: MALME-3M melanoma
MOLT-4 leukemia = tested on: MOLT-4 leukemia
NCI-H23 lung = tested on: NCI-H23 lung
NCI-H460 lung = tested on: NCI-H460 lung
NCI-H522 lung = tested on: NCI-H522 lung
OVCAR-3 ovarian = tested on: OVCAR-3 ovarian
OVCAR-4 ovarian = tested on: OVCAR-4 ovarian
OVCAR-8 ovarian = tested on: OVCAR-8 ovarian
RPMI-8226 leukemia = tested on: RPMI-8226 leukemia
RXF 393 renal = tested on: RXF 393 renal
SF-268 CNS = tested on: SF-268 CNS
SF-295 CNS = tested on: SF-295 CNS
SF-539 CNS = tested on: SF-539 CNS
SK-MEL-2 melanoma = tested on: SK-MEL-2 melanoma
SK-MEL-28 melanoma = tested on: SK-MEL-28 melanoma
SK-MEL-5 melanoma = tested on: SK-MEL-5 melanoma
SK-OV-3 ovarian = tested on: SK-OV-3 ovarian
SN12C renal = tested on: SN12C renal
SNB-19 CNS = tested on: SNB-19 CNS
SNB-75 CNS = tested on: SNB-75 CNS
SR leukemia = tested on: SR leukemia
SW-620 colon = tested on: SW-620 colon
TK-10 renal = tested on: TK-10 renal
U251 CNS = tested on: U251 CNS
UACC-257 melanoma = tested on: UACC-257 melanoma
UACC-62 melanoma = tested on: UACC-62 melanoma
UO-31 renal = tested on: UO-31 renal
XF 498 CNS = tested on: XF 498 CNS
786-0 renal = tested on: 786-0 renal
ACHN renal = tested on: ACHN renal
CAKI-1 renal = tested on: CAKI-1 renal
DLD-1 colon = tested on: DLD-1 colon
DMS 273 small cell lung = tested on: DMS 273 small cell lung
HCT-15 colon = tested on: HCT-15 colon
HOP-18 NSCLC = tested on: HOP-18 NSCLC
LOX IMVI melanoma = tested on: LOX IMVI melanoma
OVCAR-5 ovarian = tested on: OVCAR-5 ovarian
SNB-78 CNS = tested on: SNB-78 CNS
A498 renal = tested on: A498 renal
HCC-2998 colon = tested on: HCC-2998 colon
NCI-H226 lung = tested on: NCI-H226 lung

Measured: TGI

O=C1C(Cl)N(c2ccc(Cl)cc2Cl)C1c1c[nH]c2ccccc12 (stereo not drawn)
not listed: 786-0 renal | ACHN renal | CAKI-1 renal | DLD-1 colon | DMS 273 small cell lung | HCT-15 colon | HOP-18 NSCLC | LOX IMVI melanoma | OVCAR-5 ovarian | SNB-78 CNS | A498 renal | HCC-2998 colon | NCI-H226 lung
> 100 µM: all other assays above

O=C(c1cccs1)N(C(=S)N1CCN(c2ccccc2)CC1)C1CCCCC1
not listed: EKVX NSCLC | XF 498 CNS | A498 renal | HCC-2998 colon | NCI-H226 lung
> 100 µM: all other assays above

CC1(C)c2ccccc2C(C)(C)C(C(=O)Nc2ccccc2)C1C(=O)O (stereo not drawn)
not listed: IGROV1 ovarian | NCI-H460 lung | OVCAR-4 ovarian | SR leukemia | XF 498 CNS | CAKI-1 renal | HCT-15 colon
> 100 µM: all other assays above

N#CC1(Cc2ccccc2[N+](=O)[O-])c2ccccc2C2C(N1C(=O)c1ccccc1)C2(Cl)Cl (stereo not drawn)
not listed: HL-60(TB) leukemia | HOP-62 NSCLC | RPMI-8226 leukemia | SR leukemia | XF 498 CNS
> 100 µM: all other assays above

O=C1CCC2(c3ccc(F)cc3)Nc3ncccc3N12 (stereo not drawn)
not listed: DMS 114 small cell lung | HCT-116 colon | SK-OV-3 ovarian | SNB-19 CNS | SR leukemia | DMS 273 small cell lung | HOP-18 NSCLC
> 100 µM: all other assays above
